Azo = N-terminal azobenzene
Experiments:
Assay type in all cases: physicochemical
[1] = Hydrogelation conditions: lowest concentration to gel water at specific pH; parameters: key to pH (hydrogelation condition): —: unable to form hydrogel under tested conditions; details: for pH (to form a hydrogel): azobenzene substituted bio-active short peptides
Procedure: Preparation of Hydrogels. A homogeneous solution of azobenzene-substituted short peptides was prepared in a glass vial via pH adjustment and heating. Upon cooling to room temperature, a hydrogel formed for Azo-Gln-Phe-Ala; Azo-Lys-Phe-Ala; Azo-Leu- Phe-Ala; Azo-D-Lys-D-Phe-D-Ala; and Azo-Arg-Phe-Ala. However, Azo-Lys-D-Phe-D-Ala and Azo-D-Lys-Phe-Ala, sonification was necessary to facilitate the hydrogelation. Hydrogels of Azo-Ser-Phe-Ala; Azo-Gln-Tyr-Ala; Azo-Glu-Tyr-Ala; and Azo-Glu-Phe-Ala were prepared by acidifying the basic solution to the pH shown in Table 1.
Test on pH and salt effects on gelation properties. pH effect: Azo-dipeptides were mixed with a small quality of water and the mixture were adjusted to the desired pH with 1M HCl or NaOH, then heated to about 80-90° C. to obtain a clear solution. A yellow hydrogel formed upon cooling to room temperature. The lowest concentration for hydrogelation at a specific pH was obtained by successive dilution of the hydrogel using water, at the same pH that of the hydrogelation, to the point when hydrogel could not form.

[2] = Salt effect on gelation properties; details: buffer of higher concentration of Na2HPO4/NaH2PO4; FIG. 1B
Procedure: Salt effect: Buffers at different pHs (5 and 6) and different concentrations (0.05M, 0.1M, 0.2M and 0.5M) were prepared by mixing Na2HPO4 and NaH2PO4 with different concentration. The azo-dipeptides were mixed with a small quality of buffer and heated to about 80-90° C. to obtain a clear solution. Yellow hydrogels formed upon cooling to room temperature. The lowest concentration for hydrogelation at specific pH was obtained by successive dilution of the hydrogel by the buffer with the same concentration of salt to the point when the hydrogel no longer formed.

[3] = Temperature for gel to solution phase transition; details: for T (° C.): temperature for gel to solution phase transition: azobenzene substituted tripeptide hydrogels
[4] = Photo-response tests on the hydrogels (UV irradiation); parameters: key to tinit(min): time needed for initial collapse of the gel upon UV irradiation: —: no obvious change upon UV irradiation; details: for tinit(min): time needed for initial collapse of the gel upon UV irradiation: high pressure mercury lamp (500 w); for total irradiation time needed for the gel to begin to collapse (tinit): UV irradiation (365 nm), Azo-Lys-Phe-Ala: partial phase transition; for photo-response of the gel upon UV irradiation (in words): Azo-Glu-Phe-Ala: even after 5 hours of UV-irradiation
Procedure: (§1) Photo-response tests on the hydrogels. The light source for the UV irradiation was a high pressure mercury lamp (500 w) with a filter to cut off visible light. A control experiment was performed in parallel using the same hydrogel in a tin foil covered glass vial to exclude the possibility of response induced by any external stimulus other than light irradiation. The photo-response of the hydrogels was confirmed by observation of the gel to solution phase change of the sample under irradiation, but not on the sample of negative control. In one example, ^1H NMR of Azo-Lys-D-Ala-D-Ala in d-MeOH was used to confirm that after UV irradiation for 2 minutes 11% of the compound was in the cis-configuration, and after 10 minutes, 51% was in the cis-configuration.

[5] = 1H NMR determination of cis-configuration after UV irradiation; details: 1H NMR in d-MeOH
Procedure: as §1

[6] = Rheology test on the hydrogel before and after UV irradiation
Procedure: Rheology test on the hydrogel before and after UV irradiation. All rheological measurements were performed using an ARES-G2 Rheometer with a cone and a plate (25 mm diameter plate and 0.0999 rad cone angle), and a gap opening between the cone and the plate of 0.0282 mm. The dynamic strain sweep test was carried out at 6.282 rad/s, and then dynamic frequency sweep test was investigated at critical strain, which was determined from storage-strain profile.

[7] = azobenzene substituted dipeptides
[8] = azobenzene substituted tripeptides, pH at which the lowest gelling concentration applies

Azo-Ala-Phe
pH (hydrogelation condition) [1, 7]: 9.5

Azo-Ala-Tyr
salt effect on concentration required for hydrogelation [2]: decreased the concentration required for hydrogelation
pH (hydrogelation condition) [1, 7]: 5.1

Azo-Arg-Ala
pH (hydrogelation condition) [1, 7]: —

Azo-Arg-Gln
pH (hydrogelation condition) [1, 7]: —

Azo-Arg-Lys
pH (hydrogelation condition) [1, 7]: —

Azo-Arg-Phe
pH (hydrogelation condition) [1, 7]: —

Azo-Arg-Phe-Ala
T (° C.): temperature for gel to solution phase transition [3]: 47 °C
tinit(min): time needed for initial collapse of the gel upon UV irradiation [4]: 8 min
pH (hydrogelation condition) [1, 8]: 1.6

Azo-D-Lys-D-Phe-D-Ala
T (° C.): temperature for gel to solution phase transition [3]: 60 °C
tinit(min): time needed for initial collapse of the gel upon UV irradiation [4]: 15 min
pH (hydrogelation condition) [1, 8]: 1.6

Azo-D-Lys-Phe-Ala
T (° C.): temperature for gel to solution phase transition [3]: 39 °C
tinit(min): time needed for initial collapse of the gel upon UV irradiation [4]: 4 min
pH (hydrogelation condition) [1, 8]: 1.4

Azo-GAGAS
pH (to form a hydrogel) [1]: 3.9

Azo-Gln-Ala
pH (hydrogelation condition) [1, 7]: 2.5

Azo-Gln-Gln
pH (hydrogelation condition) [1, 7]: —^b

Azo-Gln-Phe-Ala
T (° C.): temperature for gel to solution phase transition [3]: 65 °C
total irradiation time needed for the gel to begin to collapse (tinit) [4]: ≤ 3 min
tinit(min): time needed for initial collapse of the gel upon UV irradiation [4]: 3 min
time to complete conversion of the hydrogel into a homogeneous non-viscous solution ([4]; UV light (365 nm), without external heating): under 20 minutes
pH (hydrogelation condition) [1, 8]: 7.8

Azo-Gln-Tyr
pH (hydrogelation condition) [1, 7]: 4.8

Azo-Gln-Tyr-Ala
T (° C.): temperature for gel to solution phase transition [3]: 81 °C
tinit(min): time needed for initial collapse of the gel upon UV irradiation [4]: —
pH (hydrogelation condition) [1, 8]: 3.1

Azo-Glu-Ala
pH (hydrogelation condition) [1, 7]: 2.4

Azo-Glu-Lys
pH (hydrogelation condition) [1, 7]: —

Azo-Glu-Phe
pH (hydrogelation condition) [1, 7]: 2.5

Azo-Glu-Phe-Ala
T (° C.): temperature for gel to solution phase transition [3]: 85 °C
photo-response of the gel upon UV irradiation (in words) [4]: No photo-response was observed
tinit(min): time needed for initial collapse of the gel upon UV irradiation [4]: —^d
pH (hydrogelation condition) [1, 8]: 4.7

Azo-Glu-Tyr
salt effect on concentration required for hydrogelation [2]: almost negligible
pH (hydrogelation condition) [1, 7]: 4.8

Azo-Glu-Tyr-Ala
T (° C.): temperature for gel to solution phase transition [3]: 69 °C
tinit(min): time needed for initial collapse of the gel upon UV irradiation [4]: —
pH (hydrogelation condition) [1, 8]: 3.0

Azo-Gly-Phe-Ala
T (° C.): temperature for gel to solution phase transition [3]: 48 °C
photo-response of the gel upon UV irradiation (in words) [4]: fast responses
total irradiation time needed for the gel to begin to collapse (tinit) [4]: 5 min
tinit(min): time needed for initial collapse of the gel upon UV irradiation [4]: 5 min
pH (hydrogelation condition) [1, 8]: 7.5

Azo-IKVAV
pH (to form a hydrogel) [1]: 4.5

Azo-LGAGGAG (Azo-LGAGGAG-OH)
pH (to form a hydrogel) [1]: 1.6

Azo-Leu-Phe-Ala
T (° C.): temperature for gel to solution phase transition [3]: 71 °C
tinit(min): time needed for initial collapse of the gel upon UV irradiation [4]: 15 min
pH (hydrogelation condition) [1, 8]: 8.6

Azo-Lys-Ala
pH (hydrogelation condition) [1, 7]: —

Azo-Lys-D-Ala-D-Ala
compound in the cis-configuration ([5]; after UV irradiation for 2 minutes): 11%
compound in the cis-configuration ([5]; after UV irradiation for 10 minutes): 51%

Azo-Lys-D-Phe-D-Ala
temperature at which the gel turned into a solution upon heating [3]: 42 °C
T (° C.): temperature for gel to solution phase transition [3]: 42 °C
photo-response of the gel upon UV irradiation (in words) [4]: fast responses
total irradiation time needed for the gel to begin to collapse (tinit) [4]: 7 min
tinit(min): time needed for initial collapse of the gel upon UV irradiation [4]: 7 min
decrease in the storage modulus of the hydrogel after UV irradiation ([6]; dynamic frequency sweep test, FIG. 4B): greater than 100 times
storage modulus of the hydrogel before UV irradiation relative to after UV irradiation ([6]; dynamic strain sweep test, FIG. 4A): 70 times
pH (hydrogelation condition) [1, 8]: 1.2

Azo-Lys-Phe-Ala
T (° C.): temperature for gel to solution phase transition [3]: 59 °C
total irradiation time needed for the gel to begin to collapse (tinit) [4]: 30 min
tinit(min): time needed for initial collapse of the gel upon UV irradiation [4]: 30 min
pH (hydrogelation condition) [1, 8]: 1.6

Azo-Phe-Ala
pH (hydrogelation condition) [1, 7]: 7.8

Azo-Phe-Glu
pH (hydrogelation condition) [1, 7]: 2.1

Azo-Phe-Phe
pH (hydrogelation condition) [1, 7]: 9.7

Azo-Phe-Ser
pH (hydrogelation condition) [1, 7]: 2.0

Azo-Phe-Tyr
pH (hydrogelation condition) [1, 7]: 8.6

Azo-Ser-Ala
pH (hydrogelation condition) [1, 7]: —

Azo-Ser-Phe
pH (hydrogelation condition) [1, 7]: 5.7

Azo-Ser-Phe-Ala
T (° C.): temperature for gel to solution phase transition [3]: 54 °C
tinit(min): time needed for initial collapse of the gel upon UV irradiation [4]: —^d
pH (hydrogelation condition) [1, 8]: 3.7

Azo-Tyr-Ala
pH (hydrogelation condition) [1, 7]: 3.0

Azo-Tyr-Lys
pH (hydrogelation condition) [1, 7]: 2.2

Azo-Tyr-Tyr
salt effect on concentration required for hydrogelation [2]: decreased the concentration required for hydrogelation
pH (hydrogelation condition) [1, 7]: 4.8

Azo-VYGGG
pH (to form a hydrogel) [1]: 2.8

Azo-YSV
pH (to form a hydrogel) [1]: 1.8

— patent publication US20130005833A1, “PHOTO-RESPONSIVE SUPRAMOLECULAR HYDROGELS” (priority 2011, published 2013)
